Each compound was assayed against T1, MCH receptor (Homo sapiens, UniProt Q99705) (assay: MCH Receptor Binding Assay ([125I]-MCH SPA, membranes from CHO cells expressing the MCH receptor)). Details: CHO cell membranes, [125I]-MCH, read-out: MCH Receptor Activity (Ki rating).
T1 construct: expressed in transfected cells; host or cells: CHO cells
Protocol: MCH Receptor Binding Assay:
Membranes from CHO cells expressing the MCH receptor were prepared by lysing cells with 5 mM HEPES for 15 min at 4 C. Cell lysates were centrifuged ([…], 15 min) and the pellet was resuspended in 5 mM HEPES. For each 96-well plate (Microlite, Dynex Technologies), 1 mg of cell membranes were incubated with 10 mg of wheat germ agglutinin SPA beads (Amersham) for 5 min at 4 C in a volume of 10 ml of binding buffer (25 mM HEPES, 10 mM MGCl2, 10 mM NaCl, 5 mM MnCl2, 0.1% BSA). The membrane/bead mixture was centrifuged (1500×g, 3.5 min), the supernatant was aspirated, and the pellet was resuspended in 10 ml binding buffer. The centrifugation, aspiration and resuspension were then repeated. The membrane/bead mixture (100 μl) was then added to 96-well plates containing 50 μl of 500 pM [^125I]-MCH (NEN) and […] of the appropriate concentration of compound (4× the desired final concentration). Nonspecific binding was determined by including 1 μM MCH in the binding reaction. The binding reaction was incubated at room temperature for 2 h. Plates were then analyzed in a TOPCOUNT microplate scintillation counter (Packard). Data was analyzed and Ki values were determined using GraphPad Prim.

T1 sequence (Q99705 whole entry): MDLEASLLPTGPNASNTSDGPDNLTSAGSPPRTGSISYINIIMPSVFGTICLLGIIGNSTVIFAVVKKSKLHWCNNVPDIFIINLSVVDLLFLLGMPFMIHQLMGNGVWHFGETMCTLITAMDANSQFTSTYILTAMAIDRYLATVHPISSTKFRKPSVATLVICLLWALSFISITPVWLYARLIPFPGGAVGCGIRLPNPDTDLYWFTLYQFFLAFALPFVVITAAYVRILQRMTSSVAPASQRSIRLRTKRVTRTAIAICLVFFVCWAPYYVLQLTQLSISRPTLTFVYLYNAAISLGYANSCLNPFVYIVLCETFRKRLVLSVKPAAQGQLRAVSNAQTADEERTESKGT

`C[C@@H]1CN(C2(C)CCN(C(=O)c3sccc3OCC3CC3)CC2)CCN1[C@@H](C)c1ccc(-c2ccncc2)cc1` [Example 15] and `C[C@@H]1CN(C2(C)CCN(C(=O)c3sccc3OCC3CC3)CC2)CCN1[C@@H](C)c1ccc(-c2cc(Cl)cc(Cl)c2)cc1` [Example 5] fall in the same range of Ki: 6 to 10 nM for the first, 6 to 10 nM for the second.

First: CCOc1ccsc1C(=O)N1CCC(N2CCN([C@@H](C)c3ccc(-c4cc(Cl)cc(Cl)c4)cc3)[C@H](C)C2)CC1C (stereo partly drawn) [Example 16]
Second: CCOc1ccsc1C(=O)N1CCC(N2CCN([C@@H](C)c3ccc(-c4cc(Cl)cc(Cl)c4)cc3)[C@H](C)C2)CC1 [Example 2]
The Ki of the first is lower: 6 to 10 nM for the first, 10 to 15 nM for the second.

`CCCOc1ccsc1C(=O)N1CCC(N2CCN([C@@H](C)c3ccc(CCc4ccc(C(F)(F)F)cc4)cc3)[C@H](C)C2)CC1` [Example 14] and `CCOc1ccsc1C(=O)N1CCC(N2CCN([C@@H](C)c3ccc(CCc4ccc(C(F)(F)F)cc4)cc3)[C@H](C)C2)CC1` [Example 13] fall in the same range of Ki: 6 to 10 nM for the first, 6 to 10 nM for the second.

`CCCOc1ccsc1C(=O)N1CCC(N2CCN([C@@H](C)c3ccc(CCc4ccc(Cl)cc4)cc3)[C@H](C)C2)CC1` [Example 4] and `CCCOc1ccsc1C(=O)N1CCC(N2CCN([C@@H](C)c3ccc(CCc4ccc5c(c4)OCO5)cc3)[C@H](C)C2)CC1` [Example 1] fall in the same range of Ki: 10 to 15 nM for the first, 10 to 15 nM for the second.

First: CCOc1ccsc1C(=O)N1CCC(N2CCN([C@@H](C)c3ccc(-c4ccc(Cl)s4)cc3)[C@H](C)C2)CC1 [Example 10]
Second: CCCOc1ccsc1C(=O)N1CCC(N2CCN([C@@H](C)c3ccc(-c4ccc(F)c(Cl)c4)cc3)[C@H](C)C2)CC1 [Example 9]
The Ki of the first is higher: > 15 nM for the first, 10 to 15 nM for the second.

`CCCOc1cscc1C(=O)N1CCC(N2CCN([C@@H](C)c3ccc(-c4cc(Cl)cc(Cl)c4)cc3)[C@H](C)C2)CC1` [Example 19] and `CCCOc1ccsc1C(=O)N1CCC(N2CCN([C@@H](C)c3ccc(-c4cc(Cl)cc(Cl)c4)cc3)[C@H](C)C2)CC1` [Example 6] fall in the same range of Ki: 6 to 10 nM for the first, 6 to 10 nM for the second.

First: CCOc1ccsc1C(=O)N1CCC(N2C[C@@H](C)N([C@@H](C)c3ccc(-c4cc(Cl)cc(Cl)c4)cc3)[C@H](C)C2)CC1 [Example 18]
Second: CCOc1ccsc1C(=O)N1CCC(N2CCN([C@@H](C)c3ccc(-c4cc(Cl)cc(Cl)c4)cc3)[C@H](C)C2)CC1C (stereo partly drawn) [Example 17]
The Ki of the first is lower: 10 to 15 nM for the first, > 15 nM for the second. The first binds more tightly here.

`C[C@@H]1CN(C2CCN(C(=O)c3sccc3OCC3CC3)CC2)CCN1[C@@H](C)c1ccc(-c2cc(Cl)cc(Cl)c2)cc1` [Example 12] and `CCCCOc1ccsc1C(=O)N1CCC(N2CCN([C@@H](C)c3ccc(-c4cc(Cl)cc(Cl)c4)cc3)[C@H](C)C2)CC1` [Example 8] fall in the same range of Ki: 6 to 10 nM for the first, 6 to 10 nM for the second.

First: CCCCOc1ccsc1C(=O)N1CCC(N2CCN([C@@H](C)c3ccc(-c4cc(Cl)cc(Cl)c4)cc3)[C@H](C)C2)CC1 [Example 7]
Second: CCCOc1ccsc1C(=O)N1CCC(C)(N2CCN([C@@H](C)c3ccc(-c4cc(Cl)cc(Cl)c4)cc3)[C@H](C)C2)CC1 [Example 3]
The Ki of the first is higher: 10 to 15 nM for the first, 6 to 10 nM for the second. The second binds more tightly here.

With `C[C@@H]1CN(C2CCN(C(=O)c3sccc3OCC3CC3)CC2)C[C@@H](C)N1Cc1ccc(-c2cc(Cl)cc(Cl)c2)cc1` [Example 11] the Ki was > 15 nM.

Same assay, conditions: unit inferred, read-out: Ki values

`CCOc1ccsc1C(=O)N1CCC(N2CCN([C@@H](C)c3ccc(-c4cc(Cl)cc(Cl)c4)cc3)[C@H](C)C2)CC1C` (stereo partly drawn) [Example 16] and `CCCOc1cscc1C(=O)N1CCC(N2CCN([C@@H](C)c3ccc(-c4cc(Cl)cc(Cl)c4)cc3)[C@H](C)C2)CC1` [Example 20] are the same in Ki: 6 nM for the first, 6 nM for the second.

Reference: patent US7345042B2, “MCH antagonists for the treatment of obesity” (Schering Corporation, priority 2003, dated 2008)
